Measurements taken from US5387409A, “Boronic acid adducts of rhenium dioxime and technetium-99m dioxime complexes containing a biochemically active group” (Bracco International B.V., priority 1992, dated 1995).

Experiments:
[1] = Cyclic voltammetry in DMF (peak potential vs. Ag/AgNO3); format: physicochemical; conditions: for Peak Potential (EP), Nitro-base Anodic / Peak Potential (EP), Nitro-base Cathodic: DMF, scan rate = 100 mV/sec, Ag/AgNO3 reference (Table 2); for Epc(DMF): cathodic peak potential in DMF vs. Ag/AgNO3 (Table 3)
[2] = Electrochemical peak potential (cathodic) in water vs. saturated calomel electrode; format: physicochemical; conditions: cathodic peak potential in water vs. saturated calomel electrode (Table 3)
xanthine oxidase = assay: Enzyme assay: xanthine oxidase reduction (disappearance of the nitro compound, UV/Visible 326 nm); format: biochemical
Experimental: The nitroimidazole boronic acids in this invention were examined in an assay using the enzyme xanthine oxidase. […] All reagents were degassed prior to mixing by passage of argon over the surface for 20 minutes. Loss of the nitro group (an indication of reduction) was monitored every 5 minutes using a UV/Visible spectrophotometer set at 326 nm. The half-lives of disappearance of the nitro compounds were determined by plotting log (concentration) mmole/ml vs time for all compounds studied.

estrogen receptor = assay: In vitro estrogen receptor binding studies, cytosolic preparations of isolated rat uteri; conditions: rat uteri cytosol; preparations with specific activity from 400 to 2000 Ci/mmol
[3] = Biodistribution: lung uptake of amine-containing 99mTc (BATO) complexes in rats; format: in vivo; conditions: I.V.
Experimental: Biodistribution Results for Amine-substituted Boron complexes, ^99m Tc(chloride)(dimethylglyoxime)3 B-R (wherein R is or contains an amine)
The other complexes listed were prepared using the methodology described in Example 2. Lung uptake at 5 and 60 minutes post I.V. administration of these compounds was noted.

[4] = hypoxanthine, pH 7.4, 0.25 μMoles nitro compound

Compound	Peak Potential (EP), Nitro-base Anodic [1]	Peak Potential (EP), Nitro-base Cathodic [1]	Epc(DMF) [1]	Epc(Aqueous) [2]	half life (enzyme assay) (xanthine oxidase; [4])	further results
COCC(O)Cn1ccnc1[N+](=O)[O-] (stereo not drawn) [Misonidazole, reference compound]	-1.43	-1.51	-1.49 V	-0.33 V	45 min	–
O=[N+]([O-])c1cn(Cc2ccc(B(O)O)cc2)cn1 [BB4NO2, 1-(4-Nitroimidazole)-benzylboronic acid]	–	–	-1.80 V	-0.50 V	95 min	–
^99 Tc(chlorine)(dimethylglyoxime)3 -1-(2-nitroimidazoyl)benzylboron [Complex of Example 15]	-1.51	-1.58	–	–	–	–
^99 Tc(chlorine)(1,2-cyclohexanedione dioxime)3 1-(2-nitroimidazoyl)benzyl boron [Complex of Example 13]	-1.50	-1.56	–	–	–	–
O=[N+]([O-])c1nccn1Cc1ccc(B(O)O)cc1 [BBNO2, 1-(2-Nitroimidazoyl)benzylboronic acid]	–	–	–	–	11 min	–
O=[N+]([O-])c1nccn1CCc1ccc(B(O)O)cc1 [BPhEtNO2, 4-(2-Nitroimidazolylethyl)phenyl boronic acid]	–	–	-1.53 V	-0.30 V	42.5 min	–
^99m/99 Tc(chloride)(dimethylglyoxime)3 (estradiol boron) [technetium labeled estradiol]	–	–	–	–	–	specific binding (estrogen receptor): 10-30 % of the total bound activity
^99m Tc(chloride)(dimethylglyoxime)3 [4-[2-[(1-methylethyl)amino]propyl]phenyl]boron	–	–	–	–	–	% Injected Dose in Lungs, 5 min. P.I. ([3]; 5 min. post-injection): 3.25 % Injected Dose; % Injected Dose in Lungs, 60 min. P.I. ([3]; 60 min. post-injection): 2.19 % Injected Dose
Cc1ncc([N+](=O)[O-])n1CCO [Metronidazole, reference compound]	-1.55	-1.63	-1.62 V	-0.46 V	–	half life (enzyme assay) (xanthine oxidase; pH 7.4): > 1440 min
O=[N+]([O-])c1nccn1CC=CB(O)O [BPropeneNO2, 2-Nitroimidazolyl-N1-[2-propenyl]-3-boronic acid]	–	–	-1.56 V	-0.30 V	24 min	–
